The target in the first assay is T1, human Y5 receptor (Homo sapiens, UniProt Q15761).
T1 construct: expressed in transfected cells; host or cells: mouse fibroblast LM(tk-) cells, e.g. L-hY5-7 (ATCC CRL-11995)
T1 sequence (Q15761 1-445): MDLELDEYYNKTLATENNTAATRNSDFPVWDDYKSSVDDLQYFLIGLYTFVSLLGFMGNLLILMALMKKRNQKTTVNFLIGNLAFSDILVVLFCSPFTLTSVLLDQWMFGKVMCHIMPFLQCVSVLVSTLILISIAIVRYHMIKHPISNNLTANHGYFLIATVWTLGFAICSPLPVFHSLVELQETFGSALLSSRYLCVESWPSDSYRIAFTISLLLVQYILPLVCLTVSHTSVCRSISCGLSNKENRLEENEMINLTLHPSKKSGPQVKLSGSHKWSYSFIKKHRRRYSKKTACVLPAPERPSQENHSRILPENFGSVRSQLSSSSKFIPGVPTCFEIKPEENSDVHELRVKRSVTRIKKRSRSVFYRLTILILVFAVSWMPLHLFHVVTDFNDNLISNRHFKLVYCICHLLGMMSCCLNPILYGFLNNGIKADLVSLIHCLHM
Nature of the assay: Radioligand binding to membranes, cloned human Y5 receptor. The conditions noted are these: Table 1; read-out: Ki (nM) hNPY-5.
The Ki is the equilibrium dissociation constant of an inhibitor or competing ligand from its target. Consider `CC(C)Nc1nc(NCC2CCC(CNS(=O)(=O)c3cccc4ccccc34)CC2)nc(NC2CCC2)n1` (stereo not drawn) [Example 7, N1-[4-([4-(cyclobutylamino)-6-(isopropylamino)-1,3,5-triazin-2-yl]aminomethyl)cyclohexyl]methyl-1-naphthalenesulfonamide], for which the inhibition constant Ki stood at 22 nM.

Regarding `C=CCNc1nc(NCC2CCC(CNS(=O)(=O)c3cccc4ccccc34)CC2)nc(NC(C)C)n1` (stereo not drawn) [Example 3, N1-{[4-({[4-(Allylamino)-6-(isopropylamino)-1,3,5-triazin-2-yl]amino}methyl)cyclohexyl]methyl}-1-naphthalenesulfonamide], the inhibition constant Ki was found to be 12 nM.

Regarding `CC(C)Nc1nc(NCC2CCC(CNS(=O)(=O)c3cccc4ccccc34)CC2)nc(NC2CC2)n1` (stereo not drawn) [Example 8, N1-[4-([4-(cyclopropylamino)-6-(isopropylamino)-1,3,5-triazin-2-yl]aminomethyl)cyclohexyl]methyl-1-naphthalenesulfonamide], the Ki came out at 9 nM.

For the molecule `CC(C)Nc1nc(NCCCn2ccnc2)nc(NCC2CCC(CNS(=O)(=O)c3cccc4ccccc34)CC2)n1` (stereo not drawn) [Example 15, N1-[4-([4-[3-(1H-1-imidazolyl)propyl]amino-6-(isopropylamino)-1,3,5-triazin-2-yl]aminomethyl)cyclohexyl]methyl-1-naphthalenesulfonamide], the inhibition constant (Ki) was 83 nM.

On to `CC(C)Nc1nc(NCCC#N)nc(NCC2CCC(CNS(=O)(=O)c3cccc4ccccc34)CC2)n1` (stereo not drawn) [Example 10, N1-[4-([4-[(2-cyanoethyl)amino]-6-(isopropylamino)-1,3,5-triazin-2-yl]aminomethyl)cyclohexyl]methyl-1-naphthalenesulfonamide], for which the inhibitory constant (Ki) was found to be 81 nM.

The assay is the same for the next values; noted with them: Table 2; read-out: Ki (nM) hNPY-5.
Consider `CCNc1nc(NCC)nc(NCC2CCC(CNS(=O)(=O)c3cccc4cccnc34)CC2)n1` (stereo not drawn) [Example 41, N8-[4-([4,6-di(ethylamino)-1,3,5-triazin-2-yl]aminomethyl)cyclohexyl]methyl-8-quinolinesulfonamide], for which the Ki was found to be 13 nM.

Turning to `CCNc1nc(NCC)nc(NCC2CCC(CNS(=O)(=O)c3ccc4nsnc4c3)CC2)n1` (stereo not drawn) [Example 40, N5-[4-([4,6-di(ethylamino)-1,3,5-triazin-2-yl]aminomethyl)cyclohexyl]methyl-2,1,3-benzothiadiazole-5-sulfonamide], the Ki amounted to 5 nM.

With `CCNc1nc(NCC)nc(NCC2CCC(CNS(=O)(=O)c3ccc(C(C)(C)C)cc3)CC2)n1` (stereo not drawn) [Example 29, N1-[4-([4,6-di(ethylamino)-1,3,5-triazin-2-yl]aminomethyl)cyclohexyl]methyl-4-(tert-butyl)-1-benzenesulfonamide], the Ki is 50 nM.

`CCNc1nc(NCC)nc(NCC2CCC(CNS(=O)(=O)c3ccc(OC)cc3)CC2)n1` (stereo not drawn) [Example 35, N1-[4-([4,6-di(ethylamino)-1,3,5-triazin-2-yl]aminomethyl)cyclohexyl]methyl-4-methoxy-1-benzenesulfonamide]: the Ki is 82 nM.

Turning to `CCNc1nc(NCC)nc(NCC2CCC(CNS(=O)(=O)c3ccc(C)cc3)CC2)n1` (stereo not drawn) [Example 39, N1-[4-([4,6-di(ethylamino)-1,3,5-triazin-2-yl]aminomethyl)cyclohexyl]methyl-4-methyl-1-benzenesulfonamide], the Ki is 28 nM.

As to `CCNc1nc(NCC)nc(NCC2CCC(CNS(=O)(=O)c3cc(C)ccc3OC)CC2)n1` (stereo not drawn) [Example 31, N1-[4-([4,6-di(ethylamino)-1,3,5-triazin-2-yl]aminomethyl)cyclohexyl]methyl-2-methoxy-5-methyl-1-benzenesulfonamide], the Ki worked out at 25 nM.

Still in this assay, the particulars now being: Table 3; read-out: Ki (nM) hNPY-5.
On to `CC(C)Nc1nc(Cl)nc(NCC2CCC(CNS(=O)(=O)c3ccc(C(C)(C)C)cc3)CC2)n1` (stereo not drawn) [Example 51, N1-[4-([4-chloro-6-(isopropylamino)-1,3,5-triazin-2-yl]aminomethyl)cyclohexyl]methyl-4-(tert-butyl)-1-benzenesulfonamide], for which the Ki came out at 3540 nM.

The assay is the same for the next values; noted with them: Table 4; read-out: Ki (nM) hNPY-5.
In the case of `CCNc1nc(NCC)nc(NCCCn2ccnc2)n1` [Example 57, N2,N4-diethyl-N6-[3-(1H-1-imidazolyl)propyl]-1,3,5-triazine-2,4,6-triamine], the Ki was more than 100000 nM.

The assay is the same for the next values; noted with them: Table 5; read-out: Ki, nM hNPY-5.
As for `COc1ccc(C)cc1S(=O)(=O)N[C@H]1CC[C@H](CNc2nc(-c3ccncc3)cs2)CC1` [Example 87, trans-2-(4-(2-Methoxy-5-methylphenyl)sulfonylamino)-cyclohexylmethylamino-4-(4-pyridyl)thiazole dihydrogen chloride], the Ki was found to be 17 nM.

Turning to `COc1ccc(C)cc1S(=O)(=O)NCCCCCNc1nc(-c2nccs2)cs1` [Example 88, N1-(5-[4-(1,3-thiazol-2-yl)-1,3-thiazol-2-yl]aminopentyl)-2-methoxy-5-methyl-1-benzenesulfonamide], the Ki worked out at 13.7 nM.

For the molecule `O=S(=O)(NCCCCCNc1nc(-c2nccs2)cs1)c1ccc(F)cc1` [Example 95, N1-(5-[4-(1,3-Thiazol-2-yl)-1,3-thiazol-2-yl]aminopentyl)-4-fluoro-1-benzenesulfonamide], the Ki is 179 nM.

For the molecule `Cc1nc(-c2csc(NC[C@H]3CC[C@H](CNS(=O)(=O)N4CCOCC4)CC3)n2)c(C)s1` [Example 100, trans-N4-[4-([4-(2,5-Dimethyl-1,3-thiazol-4-yl)-1,3-thiazol-2-yl]aminomethyl)cyclohexyl]methyl-4-morpholinesulfonamide], the Ki came out at 3.3 nM.

Staying with this assay, now noted: Table 6; read-out: Ki, nM hNPY-5.
Turning to `COc1cccc(Br)c1S(=O)(=O)NCCCCCCNc1nc2c(s1)CCSc1ccccc1-2` [Example 147, N1-[6-(4,5-Dihydrobenzo[2,3]thiepino[4,5-d][1,3]thiazol-2-ylamino)hexyl]-2-bromo-6-methoxy-1-benzenesulfonamide], the Ki came to 7.9 nM.

`O=S(=O)(NC[C@H]1CC[C@H](Nc2nc3c(s2)CCSc2ccccc2-3)CC1)c1ccc(F)cc1F` [Example 151, N1-{[4-(4,5-Dihydrobenzo[2,3]thiepino[4,5-d][1,3]thiazol-2-ylamino)cyclohexyl]methyl}-2,4-difluoro-1-benzenesulfonamide]: the Ki was 7.9 nM.

For `O=S(=O)(NC[C@H]1CC[C@H](Nc2nc3c(s2)CCSc2ccccc2-3)CC1)c1cccs1` [Example 108, N2-{[4-(4,5-Dihydrobenzo[2,3]thiepino[4,5-d][1,3]thiazol-2-ylamino)cyclohexyl]methyl}-2-thiophenesulfonamide], the Ki worked out at 5.1 nM.

As for `O=S(=O)(NC[C@H]1CC[C@H](Nc2nc3c(s2)CCSc2ccccc2-3)CC1)c1cccc(C(F)(F)F)c1` [Example 150, N1-{[4-(4,5-Dihydrobenzo[2,3]thiepino[4,5-d][1,3]thiazol-2-ylamino)cyclohexyl]methyl}-3-(trifluoromethyl)-1-benzenesulfonamide], the Ki amounted to 21 nM.

As for `CN(C)c1cccc2c(S(=O)(=O)NCCCCCNc3nc4c(s3)CCSc3ccccc3-4)cccc12` [Example 123, N1-[5-(4,5-Dihydrobenzo[2,3]thiepino[4,5-d][1,3]thiazol-2-ylamino)pentyl]-5-(dimethylamino)-1 naphthalenesulfonamide], the Ki amounted to 161 nM.

Regarding `O=[N+]([O-])c1ccccc1S(=O)(=O)NCCCCCNc1nc2c(s1)CCSc1ccccc1-2` [Example 130, N1-[5-(4,5-Dihydrobenzo[2,3]thiepino[4,5-d][1,3]thiazol-2-ylamino)pentyl]-2-nitro-1-benzenesulfonamide], the inhibition constant (Ki) turned out to be 5.2 nM.

As for `CS(=O)(=O)NCCCCCCNc1nc2c(s1)CCSc1ccccc1-2` [Example 103, N-[6-(4,5-Dihydrobenzo[2,3]thiepino[4,5-d][1,3]thiazol-2-ylamino)hexyl]methanesulfonamide], the inhibition constant Ki is 7.4 nM.

With `COCCN(C=O)[C@H]1CC[C@H](CNc2nc3c(s2)CCSc2ccccc2-3)CC1` [Example 163, trans-N-4-[(4,5-dihydrobenzo[2,3]thiepino[4,5-d][1,3]thiazol-2-ylamino)methyl]cyclohexyl-N-(2-methoxyethyl)formamide], the Ki came to 12.3 nM.

`O=C(NCCCCNc1nc2c(s1)CCSc1ccccc1-2)c1cccc2ccccc12` [Example 140, N1-[4-(4,5-Dihydrobenzo[2,3]thiepino[4,5-d][1,3]thiazol-2-ylamino)butyl]-1-naphthamide]: the Ki is 123 nM.

In the case of `O=S(=O)(NC[C@H]1CC[C@H](Nc2nc3c(s2)CCSc2ccccc2-3)CC1)c1ccc(F)cc1` [Example 155, N1-{[4-(4,5-Dihydrobenzo[2,3]thiepino[4,5-d][1,3]thiazol-2-ylamino)cyclohexyl]methyl}-4-fluoro-1-benzenesulfonamide], the Ki came out at 9.1 nM.

On to `O=S(=O)(NC[C@H]1CC[C@H](Nc2nc3c(s2)CCSc2ccccc2-3)CC1)c1c(Cl)cccc1Cl` [Example 152, N1-{[4-(4,5-Dihydrobenzo[2,3]thiepino[4,5-d][1,3]thiazol-2-ylamino)cyclohexyl]methyl}-2,6-dichloro-1-benzenesulfonamide], for which the Ki turned out to be 17.4 nM.

As for `O=S(=O)(Cc1ccccc1)NCCCCCCNc1nc2c(s1)CCSc1ccccc1-2` [Example 148, N-[6-(4,5-Dihydrobenzo[2,3]thiepino[4,5-d][1,3]thiazol-2-ylamino)hexyl]phenylmethane-sulfonamide], the Ki was 10.5 nM.

On to `O=S(=O)(NCCCCCNc1nc2c(s1)CCSc1ccccc1-2)c1ccccc1F` [Example 128, N1-[5-(4,5-Dihydrobenzo[2,3]thiepino[4,5-d][1,3]thiazol-2-ylamino)pentyl]-2-fluoro-1-benzenesulfonamide], for which the Ki was 3.7 nM.

Source of the values: US7189720B2 (H. Lundbeck A/S, priority 1999, dated 2007).
